Reference: patent US7259266B2, “Benzopyran compounds useful for treating inflammatory conditions” (Pharmacia Corporation, priority 2003, dated 2007)
Several values for one entry are separate records, joined by “and”; a condition that tells them apart may be missing. Identical values can stand only once.

What was measured:
[1] = target: T1, COX-2 (Homo sapiens, UniProt P35354); assay: Modified assay for COX-2 activity (PGE2 formed, ELISA); assay type: biochemical, human or murine; settings: human COX-2, replicate tests on separate lines, read-out: hCox-2 Modified IC50
T1 construct: A 2.0 kb fragment containing the coding region of either human or murine COX-1 or human or murine COX-2; made in house; host or cells: SF9 insect cells (baculovirus, pVL1393)
T1 sequence (P35354 18-604): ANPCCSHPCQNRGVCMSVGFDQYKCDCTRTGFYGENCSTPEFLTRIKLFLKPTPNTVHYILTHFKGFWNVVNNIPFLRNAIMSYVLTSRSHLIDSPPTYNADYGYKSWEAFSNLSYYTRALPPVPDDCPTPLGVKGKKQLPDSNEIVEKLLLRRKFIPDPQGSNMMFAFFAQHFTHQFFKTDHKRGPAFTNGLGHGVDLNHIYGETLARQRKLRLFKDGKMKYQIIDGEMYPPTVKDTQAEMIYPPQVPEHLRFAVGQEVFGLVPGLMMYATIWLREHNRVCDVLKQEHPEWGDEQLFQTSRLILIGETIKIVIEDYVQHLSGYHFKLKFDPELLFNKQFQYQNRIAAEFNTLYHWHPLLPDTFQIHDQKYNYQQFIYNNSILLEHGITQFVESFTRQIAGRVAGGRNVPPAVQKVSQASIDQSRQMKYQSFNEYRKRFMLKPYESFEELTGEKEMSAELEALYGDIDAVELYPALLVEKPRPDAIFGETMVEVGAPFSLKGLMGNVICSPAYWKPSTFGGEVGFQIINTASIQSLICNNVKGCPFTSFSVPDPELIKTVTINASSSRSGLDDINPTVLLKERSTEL

[2] = target: T1, COX-2; assay: Assay for COX-2 activity (PGE2 formed, ELISA); assay type: biochemical, human or murine; settings: human COX-2, standard assay, read-out: hCox-2 IC50

IC50 [1]	IC50 ([2]; replicate tests on separate lines)	IC50 [2]	Structure (SMILES)
29.3 nM and ≤ 137 nM	35.8 nM and ≤ 137 nM	–	O=C(O)C1=Cc2cc(Cl)c(Oc3ccc4c(c3)OCO4)cc2O[C@H]1C(F)(F)F (single isomer, unassigned) [Example 958a]
–	–	> 500000 nM	CCCOc1c(Cl)cc(Cl)c2c1OC(C(F)(F)F)C(C(=O)O)=C2 (stereo not shown) [Example 23f, 5,7-dichloro-8-propoxy-2-(trifluoromethyl)-2H-chromene-3-carboxylic acid]
–	–	> 33300 nM	Nc1c(Cl)cc(Oc2cccc3c2OC(C(F)(F)F)C(C(=O)O)=C3)c(F)c1Cl (stereo not shown) [Example 25d, 8-(4-amino-3,5-dichloro-2-fuorophenoxy)-2-(trifluoromethyl)-2H-chromene-3-carboxylic acid]
